Assay results reported in publication PMC11530689, “Anti colorectal cancer activity and in silico studies of novel pyridine nortopsentin analog as cyclin dependent kinase 6 inhibitor” (Scientific Reports, 2024).

Experiments:
HCT-116 cells = assay: MTT assay, IC50 determination; assay type: cell-based; conditions: Homo sapiens, colorectal cancer HCT-116 cells, 48 h
Experimental: HCT-116 (colon cancer cell line) was obtained from the American Type Culture Collection (ATCC). The cancer cell line was grown in Dulbecco’s Modified Eagle’s Medium (DMEM) supplemented with 10% fetal bovine serum (FBS), penicillin/streptomycin (100 U/mL and 100 μg/mL, respectively) and 2 mM L-glutamine. The cells were maintained at 37 °C in 5% CO2.
The cytotoxic activity of nortopsintin analogs (4a–4j) was determined by the national cancer institute (NCI, Bethesda, Maryland, USA) against 60 different cancer cell lines at a single concentration of (10^−5 M). For the determination of IC50 value, we used MTT assay kit (Sigma) according to the manufacturer’s protocol. HCT-116 cells were seeded into a 96-well plate at a concentration of 20,000 cells/well. After 24 h, the media was aspirated and replaced with serum-free media containing serial dilutions of the 4i compound. The cells were treated for 48 h in triplicates. […] The percentage of cytotoxicity was calculated using the following equation: % Cytotoxicity = [1 − (AVx/AVNC)] × 100.
Where, AVx denotes the average absorbance of the sample and AVNC denotes the average absorbance of the negative control. The absorbance was measured at 570 nm with reference at 690 nm.

HCT116 cells = assay: Cell cycle analysis by FACS (PI staining); assay type: cell-based, human; conditions: HCT116, treated with IC50 for 48 h, control 41.93%
Experimental: Briefly, HCT116 cells were treated with 4i compound’s IC50 for 48 h. Then, the cells were fixed in cold 70% ethanol solution for 2 h at 4 °C and centrifuged at 800 g for 5 min. The ethanol solution was removed. PBS was used to wash the cells twice. DNA was stained with 1 µg/mL propidium iodide (PI) solution (Sigma-Aldrich, St. Louis, MO, USA), supplemented with 100 µg/mL RNase A (Roche, Basel, Switzerland) for 30 min in the dark at 37 °C. After centrifugation, the cells were suspended in phosphate buffer solution and the fluorescence was measured using flow cytometry by FACSCalibur (BD Biosciences, Mountain View, CA). The data were analyzed using the CellQuest software (BD Biosciences).

Which results are given for `CN(C)c1ccc(-c2cc(-c3c[nH]c4ccccc34)nc(-c3c[nH]c4ccccc34)c2C#N)cc1` [4i]?
IC50 (HCT-116 cells): 28.8 nM; cells at G1 phase (%DIP G1) (HCT116 cells): 47.62%
